{
  "source": "patent US20100168468A1",
  "about": "“WRINKLE-PREVENTING AND IMPROVING COMPOSITION” (Kyowa Hakko Kirin Co., Ltd., priority 2005, published 2010)",
  "system": "Fibroblasts",
  "test": "Production amount of type I collagen by fibroblasts",
  "type": "cell-based",
  "conditions": "cultured for two days in DMEM without growth factors; amount without sarcosine set as 100 (FIG. 4)",
  "description": "The production of collagen was measured in the following method. Fibroblasts were plated on 24 wells, and were allowed to stand while culturing until the cells fully adhered. Then, the culture liquid (DMEM supplemented with growth factors) was replaced with a medium (DMEM without growth factors) to which the drug (sarcosine) was added to the desired concentration, and cultured for two days. The culture supernatant was removed, and the production amount of type I collagen was determined using the TAKARA's Procollagen type I-Cppeptide EIA KIT. Cell counts were determined by measuring the amount of DNA using Hoechst and then converting it to a cell count. Finally the production amount of collagen was compared as the production amount of collagen per unit cell.",
  "data": [
    {"smiles": "CNCC(=O)O", "note": "[sarcosine]", "values": [
      {"measurement": "production amount of collagen per unit cell", "value": "increases with sarcosine addition in dose dependent manner"}
    ]}
  ]
}
